Data published in paper PMC6934184, “Selective DNA-PKcs inhibition extends the therapeutic index of localized radiotherapy and chemotherapy” (The Journal of Clinical Investigation, 2019).

Biological target: T1, AURKB (Aurora B) (Homo sapiens, UniProt Q96GD4)
T1 construct: purchased Thermo Fisher Scientific (Life Technologies) SelectScreen
Assay: SelectScreen Z'LYTE
Format: biochemical
How it was run: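 Percent values come from Thermo SelectScreen profiling of NU5455, combining activity and binding assays. CSF1R was run in Z'LYTE format at Km app ATP, and CAMK1 in Adapta format with ATP listed at 10.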

T1 sequence (Q96GD4 whole entry): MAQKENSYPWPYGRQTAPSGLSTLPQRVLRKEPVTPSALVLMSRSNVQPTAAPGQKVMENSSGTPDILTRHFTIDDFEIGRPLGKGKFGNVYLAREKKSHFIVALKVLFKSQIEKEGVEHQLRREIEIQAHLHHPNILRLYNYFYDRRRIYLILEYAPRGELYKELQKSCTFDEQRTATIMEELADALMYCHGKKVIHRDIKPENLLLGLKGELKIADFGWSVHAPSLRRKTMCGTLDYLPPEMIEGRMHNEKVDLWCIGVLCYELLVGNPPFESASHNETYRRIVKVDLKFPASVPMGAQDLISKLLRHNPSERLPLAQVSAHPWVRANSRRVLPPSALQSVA

CN(C(=O)CN1CCOCC1)c1ccc2sc3c(-c4cccc5c(=O)cc(N6CC7CCC(C6)O7)oc45)cccc3c2c1 [NU5455]
inhibition at 1 µM: 1.7%
